{
  "source": "ChEMBL document CHEMBL4308863",
  "about": "“Oxidative nucleophilic substitution selectively produces cambinol derivatives with antiproliferative activity on bladder cancer cell lines” (Bioorg Med Chem Lett, 2019)",
  "key": {"[1]": {"assay": "Cytotoxicity against human C3PV cells assessed as decrease in cell viability after 3 hrs by MTT assay", "type": "cell-based"}, "[2]": {"assay": "Cytotoxicity against human C3PV cells assessed as decrease in cell viability after 24 hrs by MTT assay", "type": "cell-based"}, "EJ [3]": {"system": "EJ", "assay": "Antiproliferative activity against human MGHU1 cells expressing wild-type p53 assessed as decrease in cell viability after 24 hrs by MTT assay", "type": "functional, cell-based"}, "EJ [4]": {"system": "EJ", "assay": "Antiproliferative activity against human MGHU1 cells expressing wild-type p53 assessed as decrease in cell viability after 3 hrs by MTT assay", "type": "functional, cell-based"}, "RT-112 [5]": {"system": "RT-112", "assay": "Antiproliferative activity against human RT112 cells expressing p53 mutant assessed as decrease in cell viability after 3 hrs by MTT assay", "type": "functional, cell-based", "conditions": "RT-112, 3 h"}, "RT-112 [6]": {"system": "RT-112", "assay": "Antiproliferative activity against human RT112 cells expressing p53 mutant assessed as decrease in cell viability after 24 hrs by MTT assay", "type": "functional, cell-based", "conditions": "RT-112, 24 h"}, "[7]": {"biological_target": "T1, NAD-dependent protein deacetylase sirtuin-1 (Homo sapiens) (UniProt Q96EB6)", "T1 sequence (whole entry)": "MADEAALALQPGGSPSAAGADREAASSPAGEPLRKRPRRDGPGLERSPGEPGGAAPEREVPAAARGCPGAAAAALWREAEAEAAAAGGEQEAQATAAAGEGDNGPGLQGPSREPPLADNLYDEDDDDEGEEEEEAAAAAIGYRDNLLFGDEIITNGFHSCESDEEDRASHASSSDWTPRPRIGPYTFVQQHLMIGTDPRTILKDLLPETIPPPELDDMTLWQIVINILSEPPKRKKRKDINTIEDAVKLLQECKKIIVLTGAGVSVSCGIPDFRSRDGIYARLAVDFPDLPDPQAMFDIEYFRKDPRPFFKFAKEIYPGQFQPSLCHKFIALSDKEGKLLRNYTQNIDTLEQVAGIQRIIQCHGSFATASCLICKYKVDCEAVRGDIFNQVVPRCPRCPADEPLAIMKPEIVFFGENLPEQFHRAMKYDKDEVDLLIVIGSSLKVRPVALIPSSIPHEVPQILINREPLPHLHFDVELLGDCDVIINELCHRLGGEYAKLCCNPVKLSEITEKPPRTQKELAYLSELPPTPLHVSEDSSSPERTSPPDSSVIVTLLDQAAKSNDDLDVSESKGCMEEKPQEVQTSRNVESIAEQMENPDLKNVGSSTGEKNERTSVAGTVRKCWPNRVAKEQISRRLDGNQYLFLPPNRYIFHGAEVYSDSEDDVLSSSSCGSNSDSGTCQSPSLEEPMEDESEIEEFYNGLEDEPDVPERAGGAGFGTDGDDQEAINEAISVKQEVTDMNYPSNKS", "assay": "Inhibition of SIRT1 (unknown origin) at 10 uM using acetylated peptide p53K382 as substrate preincubated for 15 mins followed by substrate addition and measured after 40 mins by fluorescence assay"}, "EJ [8]": {"system": "EJ", "assay": "Inhibition of colony formation in human MGHU1 cells expressing wild-type p53 at […] uM after 3 to 24 hrs by crystal violet staining based assay", "type": "functional, cell-based"}, "RT-112 [9]": {"system": "RT-112", "assay": "Inhibition of colony formation in human RT112 cells expressing p53 mutant at 24.50 to 28.74 uM after 3 to 24 hrs by crystal violet staining based assay", "type": "functional, cell-based"}, "[10]": {"biological_target": "T1, NAD-dependent protein deacetylase sirtuin-1 (Homo sapiens)", "assay": "Inhibition of SIRT1 in human MGHU1 cells assessed as induction of p53 after 3 to 24 hrs by Western blot analysis", "type": "cell-based"}, "[11]": {"biological_target": "T1, NAD-dependent protein deacetylase sirtuin-1 (Homo sapiens)", "assay": "Inhibition of SIRT1 in human MGHU1 cells assessed as stabilization of p53 by measuring increase in p53 acetylation after 3 to 24 hrs by Western blot analysis", "type": "cell-based"}, "EJ [12]": {"system": "EJ", "assay": "Effect on acetylated-p53 expression in human MGHU1 cells after 3 to 24 hrs by Western blot analysis", "type": "functional, cell-based"}, "EJ [13]": {"system": "EJ", "assay": "Effect on acetylated-histone H3 expression in human MGHU1 cells after 3 to 24 hrs by Western blot analysis", "type": "functional, cell-based"}},
  "note": "Activity calls are given as the source filed them. No cut-off for these calls is given here.",
  "data": [
    {"smiles": "O=c1[nH]c(Nc2ccc(O)cc2)nc(-c2ccccc2)c1Cc1c(O)ccc2ccccc12", "values": [
      {"measurement": "IC50", "setting": "[1]", "result": "> 300", "unit": "µM"},
      {"measurement": "IC50", "setting": "[2]", "result": "> 300", "unit": "µM"},
      {"measurement": "IC50", "setting": "EJ [3]", "result": 92.4, "unit": "µM"},
      {"measurement": "IC50", "setting": "EJ [4]", "result": 90.9, "unit": "µM"},
      {"measurement": "IC50", "setting": "RT-112 [5]", "result": "> 300", "unit": "µM"},
      {"measurement": "IC50", "setting": "RT-112 [6]", "result": 265, "unit": "µM"},
      {"measurement": "inhibition", "setting": "[7]", "result": "inactive"}
    ]},
    {"smiles": "CCN(CC)c1nc(-c2ccccc2)c(Cc2c(O)ccc3ccccc23)c(=O)[nH]1", "values": [
      {"measurement": "IC50", "setting": "[1]", "result": "> 300", "unit": "µM"},
      {"measurement": "IC50", "setting": "[2]", "result": "> 300", "unit": "µM"},
      {"measurement": "IC50", "setting": "EJ [3]", "result": 79.7, "unit": "µM"},
      {"measurement": "IC50", "setting": "EJ [4]", "result": 15.4, "unit": "µM"},
      {"measurement": "IC50", "setting": "RT-112 [5]", "result": 32.2, "unit": "µM"},
      {"measurement": "IC50", "setting": "RT-112 [6]", "result": 155, "unit": "µM"},
      {"measurement": "inhibition", "setting": "[7]", "result": "inactive"}
    ]},
    {"smiles": "CCCCNc1nc(-c2ccccc2)c(Cc2c(O)ccc3ccccc23)c(=O)[nH]1", "values": [
      {"measurement": "IC50", "setting": "[1]", "result": 47.6, "unit": "µM"},
      {"measurement": "IC50", "setting": "[2]", "result": "> 300", "unit": "µM"},
      {"measurement": "IC50", "setting": "EJ [3]", "result": 28.7, "unit": "µM"},
      {"measurement": "IC50", "setting": "EJ [4]", "result": 24.5, "unit": "µM"},
      {"measurement": "IC50", "setting": "RT-112 [5]", "result": 1.9, "unit": "µM"},
      {"measurement": "IC50", "setting": "RT-112 [6]", "result": 1.6, "unit": "µM"},
      {"measurement": "inhibition", "setting": "EJ [8]", "result": "Active"},
      {"measurement": "inhibition", "setting": "RT-112 [9]", "result": "Active"},
      {"measurement": "inhibition", "setting": "[10]", "result": "inactive"},
      {"measurement": "inhibition", "setting": "[11]", "result": "inactive"},
      {"measurement": "Activity", "setting": "EJ [12]", "result": "inactive"},
      {"measurement": "Activity", "setting": "EJ [13]", "result": "inactive"},
      {"measurement": "inhibition", "setting": "[7]", "result": "inactive"}
    ]},
    {"smiles": "O=c1[nH]c(NCCc2ccc(O)cc2)nc(-c2ccccc2)c1Cc1c(O)ccc2ccccc12", "values": [
      {"measurement": "IC50", "setting": "[1]", "result": 145, "unit": "µM"},
      {"measurement": "IC50", "setting": "[2]", "result": "> 300", "unit": "µM"},
      {"measurement": "IC50", "setting": "EJ [3]", "result": 82.1, "unit": "µM"},
      {"measurement": "IC50", "setting": "EJ [4]", "result": 22.1, "unit": "µM"},
      {"measurement": "IC50", "setting": "RT-112 [5]", "result": 48.9, "unit": "µM"},
      {"measurement": "IC50", "setting": "RT-112 [6]", "result": 106, "unit": "µM"},
      {"measurement": "inhibition", "setting": "[7]", "result": "inactive"}
    ]},
    {"smiles": "C#CCNc1nc(-c2ccccc2)c(Cc2c(O)ccc3ccccc23)c(=O)[nH]1", "values": [
      {"measurement": "IC50", "setting": "[1]", "result": "> 300", "unit": "µM"},
      {"measurement": "IC50", "setting": "[2]", "result": "> 300", "unit": "µM"},
      {"measurement": "IC50", "setting": "EJ [3]", "result": 148, "unit": "µM"},
      {"measurement": "IC50", "setting": "EJ [4]", "result": 16.8, "unit": "µM"},
      {"measurement": "IC50", "setting": "RT-112 [5]", "result": 91.2, "unit": "µM"},
      {"measurement": "IC50", "setting": "RT-112 [6]", "result": 130, "unit": "µM"},
      {"measurement": "inhibition", "setting": "[7]", "result": "inactive"}
    ]},
    {"smiles": "O=c1[nH]c(=S)[nH]c(-c2ccccc2)c1Cc1c(O)ccc2ccccc12", "note": "[CAMBINOL]", "values": [
      {"measurement": "IC50", "setting": "[1]", "result": 39.9, "unit": "µM"},
      {"measurement": "IC50", "setting": "[2]", "result": "> 300", "unit": "µM"},
      {"measurement": "IC50", "setting": "EJ [3]", "result": 242, "unit": "µM"},
      {"measurement": "IC50", "setting": "EJ [4]", "result": 95.9, "unit": "µM"},
      {"measurement": "IC50", "setting": "RT-112 [5]", "result": 37.9, "unit": "µM"},
      {"measurement": "IC50", "setting": "RT-112 [6]", "result": 125, "unit": "µM"}
    ]},
    {"smiles": "O=c1[nH]c(NCCO)nc(-c2ccccc2)c1Cc1c(O)ccc2ccccc12", "values": [
      {"measurement": "IC50", "setting": "[1]", "result": "> 300", "unit": "µM"},
      {"measurement": "IC50", "setting": "[2]", "result": "> 300", "unit": "µM"},
      {"measurement": "IC50", "setting": "EJ [3]", "result": "> 300", "unit": "µM"},
      {"measurement": "IC50", "setting": "EJ [4]", "result": 282, "unit": "µM"},
      {"measurement": "IC50", "setting": "RT-112 [5]", "result": 7.2, "unit": "µM"},
      {"measurement": "IC50", "setting": "RT-112 [6]", "result": 96.6, "unit": "µM"},
      {"measurement": "inhibition", "setting": "[7]", "result": "inactive"}
    ]},
    {"smiles": "COc1ccc(Nc2nc(-c3ccccc3)c(Cc3c(O)ccc4ccccc34)c(=O)[nH]2)cc1", "values": [
      {"measurement": "IC50", "setting": "[1]", "result": "> 300", "unit": "µM"},
      {"measurement": "IC50", "setting": "[2]", "result": "> 300", "unit": "µM"},
      {"measurement": "IC50", "setting": "EJ [3]", "result": 63.7, "unit": "µM"},
      {"measurement": "IC50", "setting": "EJ [4]", "result": 160, "unit": "µM"},
      {"measurement": "IC50", "setting": "RT-112 [5]", "result": 18.5, "unit": "µM"},
      {"measurement": "IC50", "setting": "RT-112 [6]", "result": 138, "unit": "µM"},
      {"measurement": "inhibition", "setting": "[7]", "result": "inactive"}
    ]},
    {"smiles": "O=c1[nH]c(NCCc2ccc(O)c(O)c2)nc(-c2ccccc2)c1Cc1c(O)ccc2ccccc12", "values": [
      {"measurement": "IC50", "setting": "[1]", "result": "> 300", "unit": "µM"},
      {"measurement": "IC50", "setting": "[2]", "result": "> 300", "unit": "µM"},
      {"measurement": "IC50", "setting": "EJ [3]", "result": 71.7, "unit": "µM"},
      {"measurement": "IC50", "setting": "EJ [4]", "result": 12.6, "unit": "µM"},
      {"measurement": "IC50", "setting": "RT-112 [5]", "result": 35.9, "unit": "µM"},
      {"measurement": "IC50", "setting": "RT-112 [6]", "result": 79.3, "unit": "µM"},
      {"measurement": "inhibition", "setting": "[7]", "result": "inactive"}
    ]}
  ]
}
